Measured values: patent US20240216458A1, “Composition for the prevention, improvement or treatment of allergic diseases comprising an extract of Cassia mimosoides L. as an active ingredient” (KOREA INSTITUTE OF SCIENCE AND TECHNOLOGY, priority 2022, published 2024)

How the values were obtained:
Assay type in all cases: cell-based, rat
Conditions in all cases: compound 20 μM
[1] = tested on: RBL-2H3 mast cells; assay: Secretion of allergens in mast cell granules (beta-hexosaminidase activity, degranulation) after DNP-BSA stimulation
Procedure: First, rat basophilic leukocyte (RBL-2H3, American Type Culture Collection, USA) mast cells were cultured in minimal medium containing antibiotics and 10% bovine serum. After culturing, the cells were collected with trypsin, placed in a 24-well microtiter plate at 2×10^5 cells/well, and cultured until they grew to 80% confluence. The medium was replaced with PIPES buffer (25 mM PIPES, PH 7.2, 159 mM NaCl, 5 mM KCl, 0.4 mM MgCl2, 1 mM CaCl2), 5.6 mM glucose, and 0.1% BSA) for the cultured cells, and then ethanol extract of Cassia mimosoides L. prepared in <Example 1> was added to concentrations of 20 μg/ml and 40 μg/ml, respectively, and cultured for 1 hour. […]
The degree of secretion of allergy-inducing substances was determined by measuring the activity of beta-hexosaminidase, a marker of degranulation secreted in the medium, and the activity of beta-hexosaminidase was determined as the amount of p-nitrophenol liberated from p-nitrophenyl-acetyl-β-D-glucosaminide (Funaba M. et al., Cell Biol. Int., 27:879-85, 2003). […]
The degree of allergen secretion was determined by measuring the activity of β-hexosaminidase, a marker of degranulation, which was secreted in the medium, and the activity of β-hexosaminidase was determined as the amount of p-nitrophenyl liberated from p-nitrophenyl-acetyl-β-D-glucosaminide (Funaba M. et al, Cell Biol. Int., 27:879-85, 2003). […]

[2] = tested on: RBL-2H3 mast cells; assay: Histamine production secreted by mast cells (EIA kit)
Procedure: (§1) First, RBL-2H3 mast cells were seeded at 2×10^5 cells/well in a 24-well microtiter plate containing Dulbecco's Modified Eagle's Media (DMEM) medium containing 2.5% fetal bovine serum, and cultured until they grew to 80% confluence. Afterwards, ethanol extract of Cassia mimosoides L. prepared in <Example 1> was added to serum-free DMEM medium at a concentration of 20 μg/ml and 40 μg/ml, respectively, and mast cells were cultured for 24 hours. After treating mast cells with DNP-BSA for 30 minutes, the cell culture fluid was collected, centrifuged, and only the supernatant was harvested. The amount of histamine in the supernatant was confirmed using an EIA kit (Bertin Pharma, France).
Mast cells were cultured in the same manner as in Example 3, and then treated with 17 compounds isolated in Example 12 at a concentration of 20 μM, respectively.

[3] = tested on: RBL-2H3 mast cells; assay: TNF-α production secreted by mast cells (ELISA)
Procedure: as §1, with “TNF-α” for “histamine”, “ELISA” for “EIA”, “(Invitrogen, USA).” for “(Bertin Pharma, France).”
Mast cells were cultured in the same manner as in Example 4, and then treated with 17 compounds isolated in Example 12 at a concentration of 20 μM, respectively.

[4] = tested on: RBL-2H3 mast cells; assay: Interleukin-4 production secreted by mast cells (ELISA)
Procedure: as §1, with “interleukin-4” for “histamine”, “ELISA” for “EIA”, “(Invitrogen, USA).” for “(Bertin Pharma, France).”
Mast cells were cultured in the same manner as in Example 5, and then treated with 17 compounds isolated in Example 12 at a concentration of 20 μM, respectively.

[5] = tested on: RBL-2H3 mast cells; assay: Prostaglandin E2 production secreted by mast cells (ELISA)
Procedure: as §1, with “prostaglandin E2” for “histamine”, “ELISA” for “EIA”, “(R&D systems, USA).” for “(Bertin Pharma, France).”
Mast cells were cultured in the same manner as in Example 6, and then treated with 17 compounds isolated in Example 12 at a concentration of 20 μM, respectively.

Oc1ccc2c(c1)OC(c1ccc(O)c(O)c1)C[C@H]2c1c(O)cc(O)c2c1OC(c1ccc(O)c(O)c1)[C@@H](O)C2 (stereo partly drawn) [KA-1, (2S)-3′,4′,7-trihydroxyflavan-(4 β - >8)-catechin]
excellent efficacy: mast cell degranulation [1] | production of histamine secreted by mast cells [2] | production of TNF-α secreted by mast cells [3] | production of interleukin-4 secreted by mast cells [4] | production of prostaglandin E2 secreted by mast cells [5]

Oc1ccc2c(c1)OC(c1ccc(O)c(O)c1)CC2c1c(O)cc(O)c2c1OC(c1ccc(O)c(O)c1)[C@@H](O)C2 (stereo partly drawn) [KA-2, (2S)-3′,4′,7-trihydroxyflavan-(4 α - >8)-catechin]
excellent efficacy: mast cell degranulation [1] | production of histamine secreted by mast cells [2] | production of TNF-α secreted by mast cells [3] | production of interleukin-4 secreted by mast cells [4] | production of prostaglandin E2 secreted by mast cells [5]
